Results reported in publication PMC4521081, “Thiophenecarboxamide Derivatives Activated by EthA Kill Mycobacterium tuberculosis by Inhibiting the CTP Synthetase PyrG” (Chemistry & Biology, 2015).
Values after ≈ are worked out from the molar mass of the structure shown. “Also recorded” adds a separate entry of the source. Where two headings read alike, the source gives them in different places.

Columns and labels:
[1] = target: wild-type PyrG (Mycobacterium tuberculosis, UniProt P9WHK7); type: biochemical, M. tuberculosis; set-up: % inhibition of wild-type PyrG: dose or concentration left out as unconfirmed
[2] = target: T1, EthA (Mycobacterium tuberculosis, UniProt P9WNF9); conditions: cited from earlier work; for Km: read-out: Km (EthA substrate)
[3] = tested on: M. tuberculosis H37Rv; assay: microbe, parasite or virus in culture; type: cell-based
[4] = target: PyrG (Mycobacterium tuberculosis, UniProt P9WHK7); type: biochemical, M. tuberculosis
[5] = tested on: Huh7; conditions: Huh7, at concentrations below 40 μg/ml
[6] = tested on: intracellular M. tuberculosis H37Rv; assay: microbe, parasite or virus in culture; type: cell-based; conditions: Mycobacterium tuberculosis; for IC50: read-out: Intracellular IC50; for IC90: read-out: Intracellular IC90
[7] = tested on: A549; conditions: A549, at concentrations below 40 μg/ml
[8] = tested on: HepG2; conditions: HepG2, at concentrations below 40 μg/ml
[9] = tested on: non-replicating M. tuberculosis ss18b; assay: microbe, parasite or virus in culture; type: cell-based; conditions: Mycobacterium tuberculosis
[10] = tested on: RAW 264.7; conditions: at concentrations below 40 μg/ml
[11] = target: T1, EthA; type: biochemical, M. tuberculosis
[12] = tested on: M. tuberculosis H37Rv; type: cell-based, Mycobacterium tuberculosis
[13] = tested on: M. tuberculosis H37Ra; assay: MIC against M. tuberculosis H37Ra; type: cell-based, Mycobacterium tuberculosis
[14] = Mycobacterium tuberculosis, H37RV, Figure 5, H37Rv, read-out: MIC
[15] = Mycobacterium tuberculosis, H37RV, Table 1, replicating, read-out: H37Rv MIC
[16] = Mycobacterium tuberculosis, H37RV, Table 2, strain H37Rv, read-out: MIC
[17] = Mycobacterium tuberculosis, H37RV, Table S2, H37Rv, read-out: MIC
[18] = Mycobacterium tuberculosis, H37RV, Table S4, H37Rv, read-out: MIC

wild-type PyrG, sequence (P9WHK7 whole entry): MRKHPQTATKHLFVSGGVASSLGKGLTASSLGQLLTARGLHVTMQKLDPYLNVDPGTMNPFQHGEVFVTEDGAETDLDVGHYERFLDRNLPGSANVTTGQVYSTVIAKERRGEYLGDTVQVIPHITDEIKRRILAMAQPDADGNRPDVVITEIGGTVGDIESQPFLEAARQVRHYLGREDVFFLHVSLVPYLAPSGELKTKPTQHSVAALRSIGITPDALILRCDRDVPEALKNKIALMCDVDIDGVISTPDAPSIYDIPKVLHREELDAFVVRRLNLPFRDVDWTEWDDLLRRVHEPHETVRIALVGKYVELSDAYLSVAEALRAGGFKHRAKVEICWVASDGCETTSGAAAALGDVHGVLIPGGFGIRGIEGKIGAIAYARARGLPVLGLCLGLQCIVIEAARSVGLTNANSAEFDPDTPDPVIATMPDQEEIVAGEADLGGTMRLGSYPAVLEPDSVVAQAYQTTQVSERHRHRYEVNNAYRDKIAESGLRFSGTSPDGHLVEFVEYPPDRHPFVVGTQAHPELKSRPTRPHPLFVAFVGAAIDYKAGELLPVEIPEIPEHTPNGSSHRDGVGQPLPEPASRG
T1 sequence (P9WNF9 whole entry): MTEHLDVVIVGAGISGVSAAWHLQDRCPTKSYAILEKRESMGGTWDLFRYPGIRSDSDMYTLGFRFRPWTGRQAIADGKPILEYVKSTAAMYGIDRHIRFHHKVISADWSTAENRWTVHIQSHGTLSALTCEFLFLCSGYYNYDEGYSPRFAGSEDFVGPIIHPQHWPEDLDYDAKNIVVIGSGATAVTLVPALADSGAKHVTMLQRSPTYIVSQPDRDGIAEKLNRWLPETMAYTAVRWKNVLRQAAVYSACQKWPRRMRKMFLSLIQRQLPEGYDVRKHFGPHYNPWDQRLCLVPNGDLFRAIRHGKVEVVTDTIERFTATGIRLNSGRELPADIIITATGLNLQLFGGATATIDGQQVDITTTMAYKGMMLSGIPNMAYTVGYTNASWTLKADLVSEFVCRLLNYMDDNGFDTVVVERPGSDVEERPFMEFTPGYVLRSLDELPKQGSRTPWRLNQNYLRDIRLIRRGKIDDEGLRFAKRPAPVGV
PyrG, sequence (P9WHK7 whole entry): as the sequence (P9WHK7 whole entry) above

With `O=C(CCc1ccccc1)NC(=O)Nc1ccc(N2CCCCC2)cc1` [3-phenyl-N-[(4-piperidin-1-ylphenyl)carbamoyl]propanamide] the “effect on PyrG enzymatic activity” value [1] was “no effect”.
For `CCc1cc(C(N)=S)ccn1` [ETH, ethionamide, reference compound], the Km [2] is given as 340 µM and the MIC ([3]; Mycobacterium tuberculosis, H37RV) is given as 1 µg/mL (≈ 6.02 µM).
In the case of `Cc1ccc(C(=O)Nc2ccc([N+](=O)[O-])cc2)[s+]1[O-]` (centres unmarked) [M2], the “effect on PyrG enzymatic activity” value [1] is reported as “inhibit”.
With `O=C(CCc1ccccc1)NC(=S)Nc1ccc(N2CCCCC2)cc1` [compound 7904688, 3-phenyl-N-[(4-piperidin-1-ylphenyl)carbamothioyl]propanamide] the “loss of PyrG activity” value [4] was “about 80%”, the cytotoxicity [5] was “not cytotoxic” and the IC50 [6] was 0.175 µg/mL (≈ 0.476 µM). The IC90 [6] was 0.625 µg/mL (≈ 1.7 µM), the cytotoxicity [7] was “not cytotoxic” and the cytotoxicity [8] was “not cytotoxic”. The IC50 [9] was 2.5 µg/mL (≈ 6.8 µM), the IC90 [9] was 20 µg/mL (≈ 54.4 µM) and the cytotoxicity [10] was “not cytotoxic”. The “effect on wild-type PyrG” value [1] was “ineffective”, the MIC [3, 14] was 0.5 µg/mL (≈ 1.36 µM) and the MIC [3, 15] was 0.5 µg/mL (≈ 1.36 µM). For the same compound, the MIC [3, 16] was 0.5 µg/mL (≈ 1.36 µM) and the “higher affinity for EthA than ETH” value [11] was ~10 fold.
In the case of `Cc1ccc(C(=O)Nc2ccc([N+](=O)[O-])cc2)s1` [compound 7947882, 5-methyl-N-(4-nitrophenyl)thiophene-2-carboxamide], the “abundance of nucleotide intermediates” value [12] is reported as “substantial increase”, the “time in which PyrG lost full activity” value [4] is reported as ≤ 4 h and the cytotoxicity [5] is reported as “not cytotoxic”. For the same compound, the IC50 [6] was 0.625 µg/mL (≈ 2.38 µM), the IC90 [6] was 1.25 µg/mL (≈ 4.77 µM) and the cytotoxicity [7] was “not cytotoxic”. For the same compound, the cytotoxicity [8] was “not cytotoxic”, the IC50 [9] was 2.5 µg/mL (≈ 9.53 µM) and the IC90 [9] was 10 µg/mL (≈ 38.1 µM). The cytotoxicity [10] was “not cytotoxic”, the melting point was 178 to 180 °C and the “effect on wild-type PyrG” value [1] was “ineffective”. It also gave an MIC [3, 14] of 0.5 µg/mL (≈ 1.91 µM), an MIC [3, 15] of 0.5 µg/mL (≈ 1.91 µM) and an MIC [3, 16] of 0.5 µg/mL (≈ 1.91 µM). For the same compound, the MIC [3, 17] was 0.5 µg/mL (≈ 1.91 µM), the MIC [3, 18] was 0.5 µg/mL (≈ 1.91 µM) and the “higher affinity for EthA than ETH” value [11] was ~10 fold.
`Cc1ccc(C(=O)O)s1` [compound 11326028, 5-methylthiophene-2-carboxylic acid] showed an MIC ([3]; Figure 5, H37Rv) of 0.128 µg/mL (≈ 0.9 µM), an MIC [3, 14] of 0.125 µg/mL (≈ 0.879 µM) and an MIC [3, 18] of 0.128 µg/mL (≈ 0.9 µM).
In the case of `COc1ccc(NC(=O)c2cc([N+](=O)[O-])c(C)s2)cc1OC` [compound 11326054], the melting point is reported as 200 to 202 °C, the MIC [3, 14] is reported as 0.25 µg/mL (≈ 0.776 µM) and the MIC [3, 18] is reported as 0.25 µg/mL (≈ 0.776 µM). The “kcat (compound as EthA substrate)” value [11] was 0.0163 ± 0.0005 s⁻¹.
For `CC1=CC=C(C(=O)Nc2ccc([N+](=O)[O-])cc2)S1(=O)=O` [compound 11426026], the MIC [13] was 4 µg/mL (≈ 13.6 µM), the “% inhibition of wild-type PyrG” value [1] was 83.6 ± 3.8% and the “effect on PyrG enzymatic activity” value [1] was “inhibit; also recorded: higher degree of inhibition”. It also gave an MIC [3, 17] of 1 µg/mL (≈ 3.4 µM) and an MIC ([3]; Mycobacterium tuberculosis, H37RV, Table S5, read-out: H37Rv MIC) of 1 µg/mL (≈ 3.4 µM).
For `CC(=O)Cc1ccccc1` [phenylacetone], the Km ([2]; comparison values, ref Fraaije et al., 2004) is given as 60 µM and the “kcat (EthA substrate)” value ([2]; ref Fraaije et al., 2004) is given as 0.027 s⁻¹.
